In patent publication US6825177B2, “Aryl phosphate derivatives of d4T with potent anti-viral activity” (Parker Hughes Institute, priority 2000, dated 2004):
Read-outs that look alike come from different tables or passages of the source.

Columns and labels:
[1] = Stability in simulated intestinal fluid; type: in vitro ADME; conditions: 100 μM, 37° C.
Protocol: (§1) The spiked fluids were then placed in a 37° C. water bath. At a predetermined time, 100 μl aliquots of the spiked gastric or intestinal fluid were extracted by adding 400 μl of acetone as discussed above.

[2] = Pharmacokinetics of Ala-d4T-MP and its metabolite after intravenous Ala-d4T-MP; type: in vivo, Balb/c mice
Protocol: (§5) Female Balb/c mice (6-8 weeks old) from Taconic (Germantown, N.Y.) were housed in a controlled environment (12-hours of light/12-hours of dark, 22±1° C., 60±10% relative humidity), which is fully accredited by the USDA. All rodents were housed in microisolator cages (Lab Products, Inc., N.J.) containing autoclaved bedding. The mice were allowed free access to autoclaved pellet food and tap water throughout the study.
Blood samples (˜500 μL) were obtained from the ocular venous plexus by retro-orbital venipuncture at 0, 2, 5, 10, 15, 30, 45, 60, 120, 240 and 360 minutes after intravenous injection. […]
Pharmacokinetic modeling and parameter calculations were carried out using the WinNonlin Professional Version 3.0 (Pharsight, Inc., Mountain, Calif.) pharmacokinetics software (Chen et al., Pharm. Res., 16, 1003 (1999); Chen et al., Pharm. Res., 16, 117 (1999); Chen et al., J. Clin. Pharmacol., 39, 1248 (1999); Uckun et al., Clin. Cancer Res., 5, 2954 (1999); and Uckun et al., J. Pharmacol. Exp. Ther., 291, 1301 (1999)). […] The area under the concentration-time curve (AUC) was calculated according to the linear trapezoidal rule between the first sampling time (0 hours) and the last sampling time plus C/k, where C is the concentration of the last sampling and k is the elimination rate constant. The systemic clearance (CL) was determined by dividing the dose by the AUC. […]

[3] = Pharmacokinetics of HI-113 and its metabolites after intravenous HI-113
Protocol: as §5
(§6) All collected blood samples were heparinized and centrifuged at 7000×g for 5 minutes to separate the plasma fraction from the whole blood. The plasma samples were then processed immediately using the extraction procedure described above.
An appropriate model was chosen on the basis of the lowest sum of weighted squared residuals, the lowest Schwartz Criterion (SC), the lowest Akaike's Information Criterion (AIC) value, the lowest standard errors of the fitted parameters, and the dispersion of the residuals. The elimination half-life was estimated by linear regression analysis of the terminal phase of the plasma concentration-time profile. […] The systemic clearance (CL) was determined by dividing the dose by the AUC.

[4] = Stability of HI-113 and Ala-d4T-MP in whole blood; type: in vitro ADME; conditions: 37° C.; for stability in whole blood: 250 μM HI-113, 100 μM Ala-d4T-MP
Text: (§2) The HPLC system used for these studies was a Hewlett Packard (Palo Alto, Calif.) series 1100 instrument equipped with a quaternary pump, an autosampler, an automatic electronic degasser, an automatic thermostatic column compartment, a diode array detector and a computer with Chemstation software for data analysis (Chen et al., J. Chromatogr. B., 724, 157 (1999); Chen et al., J. Chromatogr. B., 727, 205 (1999); and Chen et al., J. Liq. Chromatogr., 22, 1771 (1999)). The analytical column used was a Zobax SB-Phenyl (5 μm, Hewlett Packard, Inc.) column attached to a guard column (Hewlett Packard, Inc.). The column was equilibrated prior to data collection. […] The detection wavelength was 268 nm, the peakwidth was less than 0.03 minutes, the response time was 0.5 seconds, and the slit was 4 nm.
(§3) Plasma samples (200 μL) were mixed 1:4 with acetone (800 μL) and vortexed for at least 30 seconds. Following centrifugation, the supernatant was transferred into a clean tube and was dried under nitrogen. A 50 μL solution of 50% methanol in 200 mM HCl was used to reconstitute the extraction residue, and 40 μL was injected into the HPLC.
(§4) The whole blood samples were placed in a 37° C. water bath, while plasma samples were stored at −20° C. At a predetermined time, an aliquot (100 μl) of spiked whole blood or plasma was extracted by adding 400 μl of acetone to induce precipitation of proteins, as described above.

[5] = Stability of HI-113 and Ala-d4T-MP in plasma; type: in vitro ADME; conditions: for stability in plasma: 250 μM HI-113, 100 μM Ala-d4T-MP
Text: as §2, §3, §4

[6] = Pharmacokinetics after oral administration of HI-113; type: in vivo, Balb/c mice
Protocol: Female Balb/c mice (6-8 weeks old) from Taconic (Germantown, N.Y.) were housed in a controlled environment (12-hours of light/12-hours of dark, 22±1° C., 60±10% relative humidity), which is fully accredited by the USDA. All rodents were housed in microisolator cages (Lab Products, Inc., N.J.) containing autoclaved bedding. The mice were allowed free access to autoclaved pellet food and tap water throughout the study. All animal care procedures conformed to the Guide for the Care and Use of Laboratory Animals (National Research Council, National Academy Press, Washington D.C. 1996).
Sampling time points were 0, 2, 5, 10, 15, 30, 45, 60, 120, 240 and 360 minutes after the gavage. […]
Pharmacokinetic modeling and parameter calculations were carried out using the WinNonlin Professional Version 3.0 (Pharsight, Inc., Mountain, Calif.) pharmacokinetics software (Chen et al., Pharm. Res., 16, 1003 (1999); Chen et al., Pharm. Res., 16, 117 (1999); Chen et al., J. Clin. Pharmacol., 39, 1248 (1999); Uckun et al., Clin. Cancer Res., 5, 2954 (1999); and Uckun et al., J. Pharmacol. Exp. Ther., 291, 1301 (1999)). […] The area under the concentration-time curve (AUC) was calculated according to the linear trapezoidal rule between the first sampling time (0 hours) and the last sampling time plus C/k, where C is the concentration of the last sampling and k is the elimination rate constant. […]

HIV-2 = conditions: PBMNC; cited from earlier work
[7] = Stability of HI-113 in murine liver homogenates; type: in vitro ADME, Balb/c mice; conditions: 100 μM
Protocol: Fresh mouse liver was obtained from Balb/c mice and homogenated in 1×PBS (1:1, W/V) using a Polytron (PT-MR2000) homogenizer (Kinematical AG, Littau, Switzerland). […] At a predetermined time, an aliquot (100 μl) of spiked liver homogenate was extracted by adding 400 μl of acetone to induce precipitation of proteins, as described above.

[8] = test system: HIV replication in human peripheral blood mononuclear cells (PBMNC); conditions: compared with d4T; cited from earlier work
[9] = test system: HIV replication in thymidine kinase-deficient T-cells; conditions: compared with d4T; cited from earlier work
[10] = Stability in simulated gastric fluid; type: in vitro ADME; conditions: 100 μM, 37° C.
Protocol: as §1

[11] = test system: zidovudine (ZVD/AZT)-resistant HIV-1 strains; conditions: PBMNC; cited from earlier work
[12] = for effect of esterase inhibitor on decomposition of HI-113 in plasma: plasma pre-incubated with inhibitor at 37° C. for 30 minutes, 250 μM HI-113
Protocol: Plasma samples were pre-incubated with the esterase inhibitors paraoxon (final concentration of 0.1 mM), physostigmine (final concentration of 0.1 mM), and EDTA (final concentration of 1M) at 37° C. for 30 minutes. […] The data in Table 1 was the mean percent hydrolysis from two experiments.

[13] = Pharmacokinetics of d4T after intravenous d4T; type: in vivo, Balb/c mice; conditions: i.v. d4T 40 mg/kg
Protocol: as §5
Blood samples (˜500 μL) were obtained from the ocular venous plexus by retro-orbital venipuncture at 0, 2, 5, 10, 15, 30, 45, 60, 120, 240 and 360 minutes after intravenous injection.
as §6
Pharmacokinetic modeling and parameter calculations were carried out using the WinNonlin Professional Version 3.0 (Pharsight, Inc., Mountain, Calif.) pharmacokinetics software (Chen et al., Pharm. Res., 16, 1003 (1999); Chen et al., Pharm. Res., 16, 117 (1999); Chen et al., J. Clin. Pharmacol., 39, 1248 (1999); Uckun et al., Clin. Cancer Res., 5, 2954 (1999); and Uckun et al., J. Pharmacol. Exp. Ther., 291, 1301 (1999)). An appropriate model was chosen on the basis of the lowest sum of weighted squared residuals, the lowest Schwartz Criterion (SC), the lowest Akaike's Information Criterion (AIC) value, the lowest standard errors of the fitted parameters, and the dispersion of the residuals. The elimination half-life was estimated by linear regression analysis of the terminal phase of the plasma concentration-time profile. The area under the concentration-time curve (AUC) was calculated according to the linear trapezoidal rule between the first sampling time (0 hours) and the last sampling time plus C/k, where C is the concentration of the last sampling and k is the elimination rate constant. The systemic clearance (CL) was determined by dividing the dose by the AUC. The metabolic clearance of the parent drug, the formation clearance of the metabolite, the clearance elimination of the metabolite, and the distribution clearance of the metabolite were estimated by simultaneous fitting of the concentration of parent drug and metabolites as a function of time curve to pharmacokinetic models (see FIGS. 7A & 8A) specified as a system of differential equations (Gabrielsson & Weiner, Phamacokinetic/Phamacodynamic Data Analysis: Concepts and Applications, Swedish Pharmaceutical Press (1997)).

[14] = i.v. HI-113 100 mg/kg, plasma, estimated from composite curve of pooled data
[15] = i.v. HI-113 100 mg/kg, mean ± S.E.M
[16] = plasma, estimated from composite curve of pooled data

Question: For Cc1cn([C@H]2C=C[C@@H](COP(=O)(O)NC(C)C(=O)O)O2)c(=O)[nH]c1=O (stereo partly shown) [Ala-d4T-MP, alaninyl-d4T-monophosphate], which “stability in intestinal fluid” value [1] is on record?
Answer: The value was “stable”.

Question: What about the “CLm1 as share of the total systemic clearance” value ([2]; i.v. Ala-d4T-MP) of the same molecule?
Answer: Its value is 99%.

Question: What about the “fraction of HI-113 converted to the metabolite” value ([3]; after intravenous HI-113) of the same molecule?
Answer: Its value is 23%.

Question: And the “stability in whole blood” value [4]?
Answer: The value was “stable in both whole blood and plasma for 1 day”.

Question: And the “stability in plasma” value [5]?
Answer: Its value is “stable in both whole blood and plasma for 1 day”.

Question: And the “estimated bioavailability of the metabolite” value ([6]; after oral administration of HI-113)?
Answer: The value was “approximately 12%”.

Question: Which “concentration inhibiting replication of HIV-2” value (HIV-2) does the source give for COC(=O)C(C)NP(=O)(OC[C@@H]1C=C[C@H](n2cc(C)c(=O)[nH]c2=O)O1)Oc1ccc(Br)cc1 (stereo partly shown) [HI-113, d4T-5′-[p-bromophenylmethoxyalaninyl phosphate]] here?
Answer: The value was “nanomolar concentrations”.

Question: What about the “time within which HI-113 decomposed in liver homogenate” value [7] of the same molecule?
Answer: Its value is at most 30 min.

Question: And the “potency in inhibiting HIV replication” value [8]?
Answer: The value was “substantially more potent than d4T”.

Question: And the “stability in intestinal fluid” value [1]?
Answer: The value was “not stable”.

Question: And the “HI-113 decomposed in intestinal fluid” value ([1]; within 2 hours)?
Answer: Its value is “approximately 94%”.

Question: And the “potency in inhibiting HIV replication” value [9]?
Answer: The value was “substantially more potent than d4T”.

Question: And the “stability in gastric fluid” value [10]?
Answer: Its value is “relatively stable in gastric fluid for 8 hours”.

Question: And the VSS [3, 14]?
Answer: Its VSS is 0.8199 L/kg.

Question: What about the CL [3, 15] of the same molecule?
Answer: The CL was “(174.5 ± 13.2) ml/min/kg”.

Question: And the VSS [3, 15]?
Answer: Its VSS is “(920 ± 127.4) ml/kg”.

Question: And the “stability in whole blood” value [4]?
Answer: Its value is “very unstable”.

Question: What about the “time until decomposition was complete in whole blood” value ([4]; 250 μM) of the same molecule?
Answer: The value was at most 30 min.

Question: What about the “HI-113 decomposed in whole blood” value ([4]; 5 minutes, 250 μM) of the same molecule?
Answer: The value was 68%.

Question: And the “HI-113 decomposed in whole blood” value ([4]; 10 minutes, 250 μM)?
Answer: Its value is 87%.

Question: And the “HI-113 decomposed in whole blood” value ([4]; 15 minutes, 250 μM)?
Answer: The value was 92%.

Question: And the “concentration inhibiting replication of zidovudine (ZVD/AZT)-resistant HIV-1 strains” value [11]?
Answer: The value was “nanomolar concentrations”.

Question: And the “time until decomposition was complete in plasma” value ([5]; 250 μM)?
Answer: Its value is at most 30 min.

Question: What about the “stability in plasma” value [5] of the same molecule?
Answer: The value was “very unstable”.

Question: And the “HI-113 decomposed following incubation with plasma” value ([5]; after 5 minutes, 250 μM)?
Answer: The value was “over 95%”.

Question: What about the “plasma concentration of the parent compound (below the detection limit)” value ([6]; oral HI-113 100 mg/kg) of the same molecule?
Answer: Its value is under 500 nM.

Question: And the “percent hydrolysis of HI-113 in plasma” value ([12]; EDTA (1 mM), 10 min)?
Answer: Its value is 100%.

Question: What about the “percent hydrolysis of HI-113 in plasma” value ([12]; EDTA (1 mM), 15 min) of the same molecule?
Answer: Its value is 100%.

Question: What about the “percent hydrolysis of HI-113 in plasma” value ([12]; EDTA (1 mM), 30 min) of the same molecule?
Answer: The value was 100%.

Question: What about the “percent hydrolysis of HI-113 in plasma” value ([12]; EDTA (1 mM), 60 min) of the same molecule?
Answer: The value was 100%.

Question: And the “percent hydrolysis of HI-113 in plasma” value ([12]; EDTA (1 mM), 120 min)?
Answer: The value was 100%.

Question: What about the “percent hydrolysis of HI-113 in plasma” value ([12]; EDTA (1 mM), arylesterase, 5 min) of the same molecule?
Answer: The value was 99%.

Question: And the “percent hydrolysis of HI-113 in plasma” value ([12]; Paraoxon (0.1 mM), 10 min)?
Answer: Its value is 2%.

Question: And the “percent hydrolysis of HI-113 in plasma” value ([12]; Paraoxon (0.1 mM), 15 min)?
Answer: Its value is 2%.

Question: And the “percent hydrolysis of HI-113 in plasma” value ([12]; Paraoxon (0.1 mM), 30 min)?
Answer: The value was 2%.

Question: And the “percent hydrolysis of HI-113 in plasma” value ([12]; Paraoxon (0.1 mM), 60 min)?
Answer: The value was 3%.

Question: What about the “percent hydrolysis of HI-113 in plasma” value ([12]; Paraoxon (0.1 mM), 120 min) of the same molecule?
Answer: Its value is 24%.

Question: And the “percent hydrolysis of HI-113 in plasma” value ([12]; Paraoxon (0.1 mM), cholinesterase & carboxylesterase, 5 min)?
Answer: Its value is 0%.

Question: And the “percent hydrolysis of HI-113 in plasma” value ([12]; Physostigmine (0.1 mM), 10 min)?
Answer: The value was 65%.

Question: And the “percent hydrolysis of HI-113 in plasma” value ([12]; Physostigmine (0.1 mM), 15 min)?
Answer: The value was 76%.

Question: And the “percent hydrolysis of HI-113 in plasma” value ([12]; Physostigmine (0.1 mM), 30 min)?
Answer: Its value is 89%.

Question: What about the “percent hydrolysis of HI-113 in plasma” value ([12]; Physostigmine (0.1 mM), 60 min) of the same molecule?
Answer: Its value is 100%.

Question: And the “percent hydrolysis of HI-113 in plasma” value ([12]; Physostigmine (0.1 mM), 120 min)?
Answer: Its value is 100%.

Question: What about the “percent hydrolysis of HI-113 in plasma” value ([12]; Physostigmine (0.1 mM), cholinesterase, 5 min) of the same molecule?
Answer: Its value is 43%.

Question: And the “percent hydrolysis of HI-113 in plasma” value ([12]; no inhibitor, 5 min, 250 μM HI-113, mean of two experiments)?
Answer: The value was 95%.

Question: And the “percent hydrolysis of HI-113 in plasma” value ([12]; no inhibitor, 10 min)?
Answer: Its value is 98%.

Question: And the “percent hydrolysis of HI-113 in plasma” value ([12]; no inhibitor, 15 min)?
Answer: The value was 99%.

Question: What about the “percent hydrolysis of HI-113 in plasma” value ([12]; no inhibitor, 30 min) of the same molecule?
Answer: Its value is 100%.

Question: What about the “percent hydrolysis of HI-113 in plasma” value ([12]; no inhibitor, 60 min) of the same molecule?
Answer: The value was 100%.

Question: What about the “percent hydrolysis of HI-113 in plasma” value ([12]; no inhibitor, 120 min) of the same molecule?
Answer: The value was 100%.

Question: For CCOP(=O)(OCC)Oc1ccc([N+](=O)[O-])cc1 [paraoxon, reference compound], which “effect of esterase inhibitor on decomposition of HI-113 in plasma” value [12] is on record?
Answer: The value was “significantly inhibited”.

Question: For Cc1cn([C@H]2C=C[C@@H](CO)O2)c(=O)[nH]c1=O [d4T, 2′,3′-didehydro-2′,3′-dideoxythymidine], which “formation of d4T from intravenously administered Ala-d4T-MP (fraction converted)” value ([2]; female, Balb/c, mouse, in vivo, iv) is on record?
Answer: The value was 15%.

Question: And the t1/2 [3, 14]?
Answer: The t1/2 was 1.913 h.

Question: And the AUC [13, 16]?
Answer: Its AUC is 12227.1 µM·min.

Question: What about the CL [13, 16] of the same molecule?
Answer: The CL was 15.0 mL/min/kg.

Question: What about the VSS [13, 16] of the same molecule?
Answer: Its VSS is 0.6578 L/kg.

Question: What about the t1/2 [13, 16] of the same molecule?
Answer: Its t1/2 is 0.505 h.

Question: And the CL ([13]; mean ± S.E.M)?
Answer: The CL was “(15.2 ± 0.7) ml/min/kg”.

Question: And the VSS ([13]; mean ± S.E.M)?
Answer: Its VSS is “(581.8 ± 62.8) ml/kg”.

Question: What about the t1/2 ([13]; mean ± S.E.M) of the same molecule?
Answer: The t1/2 was “(26.6 ± 1.2) min”.

Question: With O=C(O)CN(CCN(CC(=O)O)CC(=O)O)CC(=O)O [EDTA, reference compound] as the molecule, how does the “effect of esterase inhibitor on decomposition of HI-113 in plasma” value [12] read?
Answer: The value was “not affected”.
